From the NIST ThermoML archive (doi:10.1016/j.jct.2015.09.022)
Numbers after ± are expanded uncertainties.

Assay: xn = mol fraction of the nth substance listed
Conditions: 100.7 kPa, Liquid; for viscosity: Falling or rolling sphere viscometry; for speed of sound: Frequency=3 MHz, Sing-around technique in a fixed-path interferometer; for mass density: Vibrating tube method

CCCCN [1-butanamine] + CCCC[n+]1ccn(C)c1.O=S(=O)([N-]S(=O)(=O)C(F)(F)F)C(F)(F)F
Conditions	mass density [kg/m3]	speed of sound [m/s]	viscosity [mPa·s]
298.15 K, x2 = 0	733.33 ± 0.2	1246.5 ± 1.3	0.47 ± 0.03
298.15 K, x2 = 0.0261	–	1234 ± 1.3	–
298.15 K, x2 = 0.0486	–	1225.4 ± 1.3	–
298.15 K, x2 = 0.0804	–	1216.5 ± 1.3	–
298.15 K, x2 = 0.1026	916.12 ± 0.42	1211.6 ± 1.3	2.11 ± 0.13
298.15 K, x2 = 0.2026	1042.14 ± 0.29	1203.5 ± 1.3	4.44 ± 0.27
298.15 K, x2 = 0.3004	1134.03 ± 0.25	1203.2 ± 1.3	7.22 ± 0.44
298.15 K, x2 = 0.4056	1209.89 ± 0.27	1205.1 ± 1.4	11.01 ± 0.67
298.15 K, x2 = 0.5051	1266.69 ± 0.31	1208 ± 1.4	14.99 ± 0.91
298.15 K, x2 = 0.6119	1316.23 ± 0.37	1212 ± 1.4	20.24 ± 1.2
298.15 K, x2 = 0.7025	1351.49 ± 0.42	1215.1 ± 1.4	25.4 ± 1.5
298.15 K, x2 = 0.8002	1383.95 ± 0.48	1218.1 ± 1.5	32.04 ± 1.9
298.15 K, x2 = 0.9015	1412.83 ± 0.55	1222.9 ± 1.5	40.3 ± 2.4
303.15 K, x2 = 0	728.5 ± 0.2	1223.9 ± 1.3	0.44 ± 0.03
303.15 K, x2 = 0.0261	–	1212.2 ± 1.3	–
303.15 K, x2 = 0.0486	–	1204.5 ± 1.3	–
303.15 K, x2 = 0.0804	–	1196.3 ± 1.3	–
303.15 K, x2 = 0.1026	911.59 ± 0.35	1192.1 ± 1.3	1.59 ± 0.1
303.15 K, x2 = 0.2026	1037.64 ± 0.27	1186.4 ± 1.3	3.23 ± 0.2
303.15 K, x2 = 0.3004	1129.36 ± 0.26	1187.1 ± 1.3	5.31 ± 0.32
303.15 K, x2 = 0.4056	1205.12 ± 0.28	1190 ± 1.4	8.35 ± 0.51
303.15 K, x2 = 0.5051	1262.02 ± 0.32	1193.8 ± 1.4	11.71 ± 0.71
303.15 K, x2 = 0.6119	1311.69 ± 0.37	1198.9 ± 1.4	16.01 ± 0.97
303.15 K, x2 = 0.7025	1346.8 ± 0.42	1203 ± 1.4	20.08 ± 1.2
303.15 K, x2 = 0.8002	1379.23 ± 0.48	1208 ± 1.5	25.55 ± 1.6
303.15 K, x2 = 0.9015	1408.07 ± 0.55	1212.9 ± 1.5	32.07 ± 1.9
308.15 K, x2 = 0	723.67 ± 0.2	1201.3 ± 1.3	0.41 ± 0.03
308.15 K, x2 = 0.0261	–	1190.3 ± 1.3	–
308.15 K, x2 = 0.0486	–	1183.5 ± 1.3	–
308.15 K, x2 = 0.0804	–	1177.2 ± 1.3	–
308.15 K, x2 = 0.1026	907.02 ± 0.35	1174.1 ± 1.3	1.31 ± 0.08
308.15 K, x2 = 0.2026	1033.16 ± 0.27	1169 ± 1.3	2.63 ± 0.16
308.15 K, x2 = 0.3004	1124.87 ± 0.26	1170.3 ± 1.3	4.2 ± 0.26
308.15 K, x2 = 0.4056	1200.55 ± 0.28	1174.5 ± 1.4	6.58 ± 0.4
308.15 K, x2 = 0.5051	1257.23 ± 0.32	1178.9 ± 1.4	9.28 ± 0.56
308.15 K, x2 = 0.6119	1306.91 ± 0.37	1184.8 ± 1.4	12.71 ± 0.77
308.15 K, x2 = 0.7025	1342.12 ± 0.42	1189.6 ± 1.4	16.01 ± 0.97
308.15 K, x2 = 0.8002	1374.49 ± 0.48	1195.6 ± 1.5	20.49 ± 1.2
308.15 K, x2 = 0.9015	1403.3 ± 0.54	1200.9 ± 1.5	26.13 ± 1.6
313.15 K, x2 = 0	718.66 ± 0.2	1178.7 ± 1.3	0.39 ± 0.02
313.15 K, x2 = 0.0261	–	1169.5 ± 1.3	–
313.15 K, x2 = 0.0486	–	1163.2 ± 1.3	–
313.15 K, x2 = 0.0804	–	1157.5 ± 1.3	–
313.15 K, x2 = 0.1026	902.44 ± 0.35	1155 ± 1.3	1.1 ± 0.07
313.15 K, x2 = 0.2026	1028.65 ± 0.27	1152.5 ± 1.3	1.99 ± 0.12
313.15 K, x2 = 0.3004	1120.14 ± 0.26	1155.1 ± 1.3	3.21 ± 0.19
313.15 K, x2 = 0.4056	1195.66 ± 0.28	1160 ± 1.3	4.98 ± 0.3
313.15 K, x2 = 0.5051	1252.53 ± 0.31	1165.2 ± 1.4	7.11 ± 0.43
313.15 K, x2 = 0.6119	1302.05 ± 0.37	1171.9 ± 1.4	9.9 ± 0.6
313.15 K, x2 = 0.7025	1337.26 ± 0.42	1177.8 ± 1.4	12.8 ± 0.78
313.15 K, x2 = 0.8002	1369.77 ± 0.48	1184.5 ± 1.5	16.65 ± 1
313.15 K, x2 = 0.9015	1398.51 ± 0.54	1190.5 ± 1.5	21.62 ± 1.3
318.15 K, x2 = 0	714.1 ± 0.2	1156.2 ± 1.3	0.37 ± 0.02
318.15 K, x2 = 0.0261	–	1148.2 ± 1.3	–
318.15 K, x2 = 0.0486	–	1143.2 ± 1.3	–
318.15 K, x2 = 0.0804	–	1138.2 ± 1.3	–
318.15 K, x2 = 0.1026	898.17 ± 0.35	1137.8 ± 1.3	0.87 ± 0.05
318.15 K, x2 = 0.2026	1024.27 ± 0.27	1137.2 ± 1.3	1.57 ± 0.1
318.15 K, x2 = 0.3004	1115.68 ± 0.26	1141.4 ± 1.3	2.53 ± 0.15
318.15 K, x2 = 0.4056	1191.05 ± 0.28	1146.8 ± 1.3	3.95 ± 0.24
318.15 K, x2 = 0.5051	1247.99 ± 0.31	1152.5 ± 1.4	5.65 ± 0.34
318.15 K, x2 = 0.6119	1297.45 ± 0.37	1160 ± 1.4	7.95 ± 0.48
318.15 K, x2 = 0.7025	1332.6 ± 0.41	1167 ± 1.4	10.45 ± 0.63
318.15 K, x2 = 0.8002	1364.99 ± 0.47	1174.2 ± 1.5	13.75 ± 0.83
318.15 K, x2 = 0.9015	1393.75 ± 0.54	1180.5 ± 1.5	17.99 ± 1.1
323.15 K, x2 = 0	709.21 ± 0.2	1133.5 ± 1.3	0.35 ± 0.02
323.15 K, x2 = 0.0261	–	1126.2 ± 1.3	–
323.15 K, x2 = 0.0486	–	1121.5 ± 1.3	–
323.15 K, x2 = 0.0804	–	1117.8 ± 1.3	–
323.15 K, x2 = 0.1026	893.96 ± 0.56	1118.6 ± 1.3	0.74 ± 0.05
323.15 K, x2 = 0.2026	1019.8 ± 0.4	1119 ± 1.3	1.32 ± 0.08
323.15 K, x2 = 0.3004	1110.93 ± 0.34	1124.5 ± 1.3	2.09 ± 0.13
323.15 K, x2 = 0.4056	1186.44 ± 0.32	1130.6 ± 1.3	3.26 ± 0.2
323.15 K, x2 = 0.5051	1243.22 ± 0.34	1137.2 ± 1.4	4.64 ± 0.28
323.15 K, x2 = 0.6119	1292.55 ± 0.38	1145.6 ± 1.4	6.49 ± 0.39
323.15 K, x2 = 0.7025	1327.75 ± 0.42	1153 ± 1.4	8.48 ± 0.51
323.15 K, x2 = 0.8002	1360.33 ± 0.48	1161.3 ± 1.5	11.32 ± 0.69
323.15 K, x2 = 0.9015	1389.17 ± 0.54	1168.3 ± 1.5	14.91 ± 0.9
